Measured values published in ChEMBL document CHEMBL1154198, “Chemical genetics of Plasmodium falciparum” (Nature, 2010).

Columns and labels:
Plasmodium falciparum [1] = assay: ST_JUDE: Plasmodium falciparum 3D7 EC50 (uM) as measured by SYBR green dye; format: functional, organism-based
Plasmodium falciparum [2] = assay: ST_JUDE: Plasmodium falciparum K1 EC50 (uM) as measured by SYBR green dye; format: functional, organism-based

Structure (SMILES)	EC50 (Plasmodium falciparum [1])	EC50 (Plasmodium falciparum [2])
COC(=O)C1C(=O)C2=C(CC1C)NC(=O)CC2c1ccc([N+](=O)[O-])cc1 (centres undefined)	3.01 µM	1.66 µM
N#Cc1cccc(NC(=O)C2c3ccccc3C(=O)N(C3CCCC3)C2c2cccs2)c1 (centres undefined)	0.188 µM	0.253 µM
O=C1CC(O)(C(F)(F)C(F)(F)OC(F)(F)F)Oc2ccc(Cl)cc21 (centres undefined)	> 15 µM	> 15 µM
O=C(Cc1ccccc1)NC(c1ccc(Cl)cc1)c1c(O)ccc2ccccc12 (centres undefined)	> 15 µM	> 15 µM
COc1ccc(OC)c2sc(NNC(=O)c3ccc(S(=O)(=O)N(C)C)cc3)nc12	6.72 µM	6.61 µM
Cc1cc(C)c(C)c(OCCCCCCN2CCCC2)c1	> 15 µM	> 15 µM
CC(=O)c1ccc(NC(=O)C2c3ccccc3C(=O)N(CC(C)C)C2c2cccs2)cc1 (centres undefined)	0.571 µM	0.682 µM
CC(=O)N(C1=C(N(C)C)C(=O)c2ccccc2C1=O)c1ccc(C(=O)O)cc1	1.3 µM	1.9 µM
Cc1ccnc(N2C(=O)c3ccccc3C2Nc2ccccc2C)c1 (centres undefined)	> 15 µM	> 15 µM
C=CCc1cccc(/C=N/NC(=O)c2cccs2)c1O	> 15 µM	6.81 µM
CCc1ccc(C(Nc2ccccn2)c2ccc3cccnc3c2O)cc1 (centres undefined)	2.31 µM	2.72 µM
CCOc1cc(O)c(-c2[nH]nc(C)c2Oc2ccc(F)cc2)cc1CC	2.51 µM	3.55 µM
Cc1ccc(CN2CCCN(Cc3ccc(F)cc3)C2c2ccccc2F)cc1 (centres undefined)	4.18 µM	> 15 µM
Cc1cc(N2CCN(C)CC2)nc2ccc(NC(=S)NCCN3CCN(c4ccccc4F)CC3)cc12	2 µM	6.21 µM
CCc1ccccc1NC(=O)C1c2ccccc2C(=O)N2CCc3ccccc3C12 (centres undefined)	0.841 µM	1.17 µM
CC(=O)c1cccc(CN2CCN(CC(C)C)C(CCO)C2)c1 (centres undefined)	> 15 µM	> 15 µM
Nc1ccc(-c2nc3cc(Oc4ccc5[nH]c(-c6ccc(N)cc6)nc5c4)ccc3[nH]2)cc1	1.47 µM	1.69 µM
COCCCn1c(=N)c(C(=O)NCc2cccnc2)cc2c(=O)n3cccc(C)c3nc21	> 15 µM	> 15 µM
CCOC(=O)c1ccc(N2Cc3ccccc3C2)cc1O	> 15 µM	> 15 µM
COc1ccc(CCNC(=S)Nc2cccc(Cl)c2)cc1OC	5.39 µM	3.98 µM
CCCO/C(O)=C1\C(C)=NC2=C(C(=O)CC(c3ccccc3OC)C2)C1c1ccc(OC)c(OC)c1 (centres undefined)	3.85 µM	3.8 µM
Cc1ccnc(NC(c2cccc(OCc3ccccc3)c2)c2ccc3cccnc3c2O)c1 (centres undefined)	1.81 µM	2.93 µM

Structure (SMILES)	EC50 (Plasmodium falciparum [1])	EC50 (Plasmodium falciparum [2])
CC[n+]1c(C=C2C=CN(C)C=C2)ccc2cc(OC)ccc21	> 15 µM	2.05 µM
CSc1cccc(NC(=O)N2CCC(CO)(Cc3ccccc3Cl)CC2)c1	> 15 µM	> 15 µM
Cc1cccc2sc(N(Cc3cccnc3)C(=O)c3ccco3)nc12	6.82 µM	5.31 µM
CCN(CC)CCNC(=O)c1ccc(Cn2c(SCc3cccc(C)c3)nc3ccncc32)cc1	6.75 µM	> 15 µM
Cc1cccc(-n2ccnc2SCC(=O)Nc2cccc(C(F)(F)F)c2)c1C	0.836 µM	1.81 µM
O=C(CSc1nccn1Cc1ccccc1Cl)Nc1cc(C(F)(F)F)ccc1Cl	> 15 µM	1.39 µM
CCCCCn1c(=O)c2c(nc3n(-c4ccccc4OCC)c(C)cn23)n(C)c1=O	> 15 µM	> 15 µM
COc1ccc(C2C(C#N)=C(C(C)(C)C)Nc3ncnn32)cc1 (centres undefined)	8.08 µM	> 15 µM
CCOc1ccccc1/C=C/C(=O)Nc1ccc2nc(N3CCN(C)CC3)cc(C)c2c1	0.437 µM	> 15 µM
CCOc1cc(/C=C/c2ccc3cccc(O)c3n2)ccc1O	> 15 µM	> 15 µM
CC(=O)N(C1=C(N2CCCCC2)C(=O)c2ccccc2C1=O)c1ccc(F)cc1	2.72 µM	3.89 µM
Oc1ccc(C(=C(Cl)Cl)c2ccc(O)cc2)cc1	2.47 µM	0.927 µM
Oc1c(C(Nc2ccccn2)c2cccc(OC3CCCC3)c2)ccc2cccnc12 (centres undefined)	3.71 µM	4.16 µM
CCOc1c(Br)cc(C2C(C(=O)OC)=CN(C(C)C)C=C2C(=O)OC)cc1OC	4.03 µM	3.44 µM
OCCNc1nc(Nc2ccc(Cl)cc2)nc2ccccc12	1.02 µM	3.2 µM
Cc1ccc(S(=O)(=O)Oc2ccc(/C=N/N=C(N)N)cc2)cc1	1.18 µM	> 15 µM
O=C1C(Nc2cccc(C(F)(F)F)c2)=C(N2CCCCC2)C(=O)c2ccccc21	0.852 µM	1.49 µM
O=C(Cc1ccccc1)N(Cc1cccnc1)c1nc2ccc(Cl)cc2s1	> 15 µM	> 15 µM
CCCC(=O)NC(Nc1ccc(S(=O)(=O)Nc2cc(C)on2)cc1)(C(=O)OCC)C(F)(F)F (centres undefined)	1.85 µM	5.22 µM
COCCN1CCC(CN(Cc2ccncc2)Cc2ccc(CC(C)C)cc2)CC1	6.73 µM	5.3 µM
COc1ccc(/C=C2\Oc3c(ccc(O)c3CN3CCCCC3)C2=O)cc1	1.63 µM	0.846 µM
CCCCOc1ccc(S(=O)(=O)Nc2ccc(Nc3nc(C)cc(N4CCCC4)n3)cc2)cc1	1.41 µM	> 15 µM

Structure (SMILES)	EC50 (Plasmodium falciparum [1])	EC50 (Plasmodium falciparum [2])
CCCOc1ccc(CSC2=NCCN2)cc1[N+](=O)[O-]	6.86 µM	6.96 µM
COc1ccc(C2C(C(=O)Nc3cc(C)ccc3OC)c3ccccc3C(=O)N2C)cc1 (centres undefined)	2.1 µM	3.73 µM
CC(C)OCc1cc(CN2CCN(c3cccc(Cl)c3)CC2)c(O)c2ncccc12	0.941 µM	0.808 µM
Cc1cccnc1Nc1nc(-c2ccccn2)cs1	1.84 µM	1.32 µM
CCCCN1COc2ccc3c(-c4ccccc4)cc(=O)oc3c2C1	1.92 µM	0.598 µM
COc1cc(NC(=O)N2CCn3cccc3C2c2ccc(F)cc2)cc(OC)c1OC (centres undefined)	4.15 µM	3.75 µM
CCCN(CCC)C(=O)c1ccc2c(Cl)c3c(nc2c1)CCCC3	> 15 µM	> 15 µM
CC(C)(C)c1ccc(C(=O)CC(=O)c2cc(Cl)ccc2O)cc1	> 15 µM	> 15 µM
CN(C)CCNc1c2c(nc3ccccc13)CCC2	3.96 µM	> 15 µM
CC(=O)CCc1ccc(OCCN2CCOCC2)cc1	> 15 µM	> 15 µM
COc1cccc(C(=O)NC(NC(=S)Nc2ccccc2Cl)C(Cl)(Cl)Cl)c1 (centres undefined)	2.67 µM	5.39 µM
CCOC(=O)c1ccc2nc(C)cc(Nc3ccc(C)c(Cl)c3)c2c1	1.9 µM	> 15 µM
O=C(Cc1ccc(Cl)cc1)Nc1cc(C(F)(F)F)cc(C(F)(F)F)c1	> 15 µM	5.13 µM
CCCOc1ccc(-c2[nH]ncc2Oc2ccccc2)c(O)c1	4.7 µM	2.49 µM
COc1ccc(OC)c2sc(N(Cc3cccnc3)C(=O)c3cccc(F)c3)nc12	4.1 µM	4.97 µM
CC(C)(C)c1ccc(C(=O)Nc2nc3c(s2)CN(Cc2ccccc2)CC3)cc1	> 15 µM	> 15 µM
CC(C)(C)c1ccc2c(c1)CN(Cc1ccccc1)CO2	0.239 µM	0.0523 µM
c1ccc(CN2CCN(c3nc(N(c4ccccc4)c4ccccc4)nc(-n4ccnc4)n3)CC2)cc1	2.46 µM	1.81 µM
CN(C)CCNCCCOc1ccc(Cl)cc1Cc1ccccc1	5.82 µM	> 15 µM
Cc1ccc(/C=N/NC(=O)COc2ccc(Cl)cc2Cl)c(O)c1	> 15 µM	> 15 µM
O=C1CC(O)(C(F)(F)C(F)(F)F)Oc2ccccc21 (centres undefined)	2.57 µM	2.48 µM
CCOc1cc(C2Nc3cccc4cccc(c34)N2)ccc1O	> 15 µM	> 15 µM

Structure (SMILES)	EC50 (Plasmodium falciparum [1])	EC50 (Plasmodium falciparum [2])
C#CC[n+]1ccn2cccc2c1C	1.08 µM	0.607 µM
COc1ccccc1C1CC(c2ccccc2)=NN1C(=O)c1ccco1 (centres undefined)	0.594 µM	4.33 µM
COc1ccc(N2CCN(C3CCCN(Cc4cccc(SC)c4)C3)CC2)cc1 (centres undefined)	> 15 µM	> 15 µM
COc1ccc(N2CCN(CC(O)COc3ccc(C)cc3C(C)(C)C)CC2)cc1 (centres undefined)	> 15 µM	> 15 µM
O=C(c1ccco1)N(Cc1cccnc1)c1nc2ccc(F)cc2s1	> 15 µM	> 15 µM
Cc1ccc(O)c(-n2cc3c(c2-c2ccc(C(C)(C)C)cc2)c(=O)n(C)c(=O)n3C)c1	3.57 µM	2.41 µM
CCCC(=O)NC(c1ccc(C(C)C)cc1)c1cc(Cl)c2cccnc2c1O (centres undefined)	> 15 µM	> 15 µM
COc1ccc2nc(C)cc(Nc3ccc(Cl)c(Cl)c3)c2c1	1.14 µM	4.84 µM
CCOC(=O)c1cnc2ccc(OCC)cc2c1NCCCN1CCOCC1	1.08 µM	2.36 µM
CCc1n(CC(O)COc2ccccc2OC)c2ccccc2[n+]1CC (centres undefined)	> 15 µM	> 15 µM
CC(=O)Nc1ccc(S(=O)(=O)Nc2ccc(Nc3nc(C)cc(N4CCCC4)n3)cc2)cc1	0.57 µM	3.44 µM
CCc1cc(-c2[nH]nc(C)c2Oc2ccc(Cl)cc2)c(O)cc1OC	4.85 µM	3.2 µM
O=C(c1cccc(C(F)(F)F)c1)N1CCN(c2ccc(N3CCCCCC3)nn2)CC1	> 15 µM	> 15 µM
CCCN1CCC(NC(=S)Nc2ccc([N+](=O)[O-])cc2)CC1	> 15 µM	> 15 µM
CCOC(=O)c1oc2c(c1C)-c1nn(Cc3ccc(C)cc3)cc1CC2	3.14 µM	2.16 µM
CCN1CCN(c2cc(C)c3cc(NC(=S)NCCN4CCN(c5cccc(Cl)c5)CC4)ccc3n2)CC1	2.4 µM	6.15 µM
Cc1ccc(NC(=O)C2(c3ccc([N+](=O)[O-])cc3)CCCC2)cc1	> 15 µM	3.82 µM
CC(=O)c1ccc(NC2=C(n3nnc4ccccc43)C(=O)c3ccccc3C2=O)cc1	> 15 µM	1.58 µM
C=CCOC(=O)C1=C(C)N=C2CCCC(O)=C2C1c1ccc(OCC)c(OC)c1 (centres undefined)	> 15 µM	5.26 µM
COc1ccc(C(C)(C)C)cc1S(=O)(=O)Nc1ccc(Nc2nc(C)cc(N(C)C)n2)cc1	0.741 µM	1.32 µM
COc1ccc(C(=O)NC(Nc2ccc(Cl)cc2)C(Cl)(Cl)Cl)cc1OC (centres undefined)	1.53 µM	1.86 µM
